In publication PMC9225712, “Rational design of biodegradable sulphonamide candidates treating septicaemia by synergistic dual inhibition of COX-2/PGE2 axis and DHPS enzyme” (Journal of Enzyme Inhibition and Medicinal Chemistry, 2022):

Assays:
[1] = system: Streptococcus mutans (RCMB 0100172); assay: Inhibition zone, agar cup diffusion; conditions: RCMB0100172, 24 h, read-out: inhibition zones (IZ) S. mutans
[2] = system: Staphylococcus epidermidis (RCMB 0100183); assay: Inhibition zone, agar cup diffusion; conditions: RCMB0100183, 24 h, read-out: inhibition zones (IZ) S. epidermidis
[3] = system: Bacillus subtilis (RCMB 0100162); assay: Inhibition zone, agar cup diffusion; conditions: RCMB0100162, 24 h, read-out: inhibition zones (IZ) B. subtillis
[4] = system: Staphylococcus aureus (RCMB 0100183); assay: Inhibition zone, agar cup diffusion; conditions: RCMB0100183, 24 h, read-out: inhibition zones (IZ) S. aureus
[5] = target: T1, human recombinant COX-2 (Homo sapiens, UniProt P35354); assay: In vitro COX-2 enzymatic assay (Cayman kit 560131); conditions: for SI COX-1/COX-2: COX-2 selectivity index: COX-1 IC50/COX-2 IC50
T1 sequence (P35354 18-604): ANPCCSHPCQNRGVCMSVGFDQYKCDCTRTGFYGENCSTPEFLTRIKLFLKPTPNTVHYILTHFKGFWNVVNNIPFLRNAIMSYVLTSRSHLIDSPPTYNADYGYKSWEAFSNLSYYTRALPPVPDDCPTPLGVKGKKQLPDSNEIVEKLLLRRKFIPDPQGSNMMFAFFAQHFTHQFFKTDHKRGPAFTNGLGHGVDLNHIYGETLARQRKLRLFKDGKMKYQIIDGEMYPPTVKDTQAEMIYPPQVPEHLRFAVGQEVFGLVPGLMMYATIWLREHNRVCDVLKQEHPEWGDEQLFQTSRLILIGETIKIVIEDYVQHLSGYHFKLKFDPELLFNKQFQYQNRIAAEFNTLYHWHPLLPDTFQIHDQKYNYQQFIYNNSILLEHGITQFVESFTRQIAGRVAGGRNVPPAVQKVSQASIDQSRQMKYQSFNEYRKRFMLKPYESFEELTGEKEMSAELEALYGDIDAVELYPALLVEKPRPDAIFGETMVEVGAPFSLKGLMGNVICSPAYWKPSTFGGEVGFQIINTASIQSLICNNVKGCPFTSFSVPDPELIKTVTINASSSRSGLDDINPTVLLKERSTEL

[6] = system: Pseudomonas aeruginosa (RCMB 0100243); assay: Inhibition zone, agar cup diffusion; conditions: RCMB0100243, 24 h, read-out: inhibition zones (IZ) P.aeruginosa
[7] = system: Shigella dysenteriae (RCMB 0100542); assay: Inhibition zone, agar cup diffusion; assay type: cell-based; conditions: RCMB0100542, 24 h, read-out: inhibition zones (IZ) S. dysenteriae
[8] = system: Escherichia coli (RCMB 010052); assay: Inhibition zone, agar cup diffusion; conditions: RCMB010052, 24 h, read-out: inhibition zones (IZ) E.coli
[9] = target: T2, ovine COX-1 (Ovis aries, UniProt P05979); assay: In vitro COX-1 enzymatic assay (Cayman kit 560131); assay type: biochemical; conditions: Mean ± SEM of triplicate determinations
T2 construct: purchased Cayman Chemicals Inc. 560131
T2 sequence (P05979 25-600): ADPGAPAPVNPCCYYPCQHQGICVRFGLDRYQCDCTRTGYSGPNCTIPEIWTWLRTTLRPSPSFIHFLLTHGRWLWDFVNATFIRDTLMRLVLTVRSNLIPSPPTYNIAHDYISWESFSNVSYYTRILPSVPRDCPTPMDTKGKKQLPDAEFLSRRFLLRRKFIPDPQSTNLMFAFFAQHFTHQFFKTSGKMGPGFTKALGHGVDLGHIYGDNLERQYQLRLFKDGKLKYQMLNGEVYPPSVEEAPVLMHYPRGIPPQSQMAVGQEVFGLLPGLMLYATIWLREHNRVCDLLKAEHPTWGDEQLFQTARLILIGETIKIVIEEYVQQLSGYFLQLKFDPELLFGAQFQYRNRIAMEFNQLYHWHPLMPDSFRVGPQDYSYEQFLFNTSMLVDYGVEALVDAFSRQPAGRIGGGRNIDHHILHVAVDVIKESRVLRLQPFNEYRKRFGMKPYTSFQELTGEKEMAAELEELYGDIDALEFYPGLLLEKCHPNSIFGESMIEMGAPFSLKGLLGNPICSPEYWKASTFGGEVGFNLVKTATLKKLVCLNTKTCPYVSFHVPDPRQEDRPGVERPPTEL

[10] = system: Salmonella typhi (RCMB 0100104); assay: Inhibition zone, agar cup diffusion; assay type: cell-based; conditions: Salmonella enterica, 24 h, read-out: inhibition zones (IZ) S. typhi
[11] = system: Proteus vulgaris (RCMB 010085); assay: Inhibition zone, agar cup diffusion; conditions: RCMB010085, 24 h, read-out: inhibition zones (IZ) P. vulgaris

SMILES | zone of inhibition at 1000 µg/mL [1] | zone of inhibition at 1000 µg/mL [2] | zone of inhibition at 1000 µg/mL [3] | zone of inhibition at 1000 µg/mL [4] | IC50 [5] | SI COX-1/COX-2 [5] | zone of inhibition at 1000 µg/mL [6] | zone of inhibition at 1000 µg/mL [7] | zone of inhibition at 1000 µg/mL [8] | IC50 [9] | zone of inhibition at 1000 µg/mL [10] | zone of inhibition at 1000 µg/mL [11]
CC1(C)S[C@@H]2[C@H](NC(=O)[C@H](N)c3ccccc3)C(=O)N2[C@H]1C(=O)O [Ampicillin, reference compound] | 30 mm | 32 mm | 15 mm | 30 mm | – | – | – | – | – | – | – | –
CCCCNC(=O)c1cc(/N=N/c2ccc(S(N)(=O)=O)cc2)ccc1O [Compound 5a, N-Butyl-2-hydroxy-5-((4-sulfamoylphenyl)diazenyl) benzamide] | 29 mm | 33 mm | 17 mm | 26 mm | 0.11 ± 0.0003 µM | 87.3 | 14 mm | 25 mm | 14 mm | 9.6 ± 0.06 µM | 15 mm | 18 mm
CCCCNC(=O)c1cc(/N=N/c2ccc(S(=O)(=O)Nc3ncccn3)cc2)ccc1O [Compound 5c, N-Butyl-2-hydroxy-5-((4-(N-(pyrimidin-2-yl)sulfamoyl)phenyl)diazenyl) benzamide] | 31 mm | 30 mm | 19 mm | 29 mm | 0.08 ± 0.0003 µM | 145.5 | 16 mm | 25 mm | 16 mm | 11.2 ± 0.08 µM | 13 mm | 17 mm
CCCCNC(=O)c1cc(/N=N/c2ccc(S(=O)(=O)Nc3nccc(C)n3)cc2)ccc1O [Compound 5d, N-Butyl-2-hydroxy-5-((4-(N-(4-methylpyrimidin-2yl)sulfamoyl)phenyl)diazenyl) benzamide] | 28 mm | 32 mm | 20 mm | 28 mm | 0.09 ± 0.001 µM | 116.5 | 18 mm | 26 mm | 16 mm | 10.6 ± 0.08 µM | 16 mm | 19 mm
NS(=O)(=O)c1ccc(/N=N/c2ccc(O)c(C(=O)NCc3ccccc3)c2)cc1 [Compound 5e, N-Benzyl-2-hydroxy-5-((4-sulfamoylphenyl)diazenyl) benzamide] | 30 mm | 35 mm | 16 mm | 32 mm | 0.12 ± 0.003 µM | 69.2 | 18 mm | 25 mm | 16 mm | 8.3 ± 0.06 µM | 16 mm | 21 mm
